According to US9549932B2, “2-(morpholin-4-yl)-1,7-naphthyridines” (BAYER PHARMA AKTIENGESELLSCHAFT, priority 2014, dated 2017):

Target: full-length human ATR protein (Homo sapiens (Human), UniProt Q13535)
Assay: Binding assay ATR (TR-FRET tracer displacement)
Conditions: tracer A, TR-FRET; read-out: ATR binding (tracer A) IC50
Summary of the method: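 Full-length human GST-ATR co-purified with ATRIP, pre-complexed 30 min at 22 °C with anti-GST-Tb antibody, then pre-bound with compound 10 min. Tracer A or B added (2 µl of 100 nM solution), 30 min at 22 °C.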

Chain of full-length human ATR protein (Q13535 other isoform, or with tags, fused parts or gaps): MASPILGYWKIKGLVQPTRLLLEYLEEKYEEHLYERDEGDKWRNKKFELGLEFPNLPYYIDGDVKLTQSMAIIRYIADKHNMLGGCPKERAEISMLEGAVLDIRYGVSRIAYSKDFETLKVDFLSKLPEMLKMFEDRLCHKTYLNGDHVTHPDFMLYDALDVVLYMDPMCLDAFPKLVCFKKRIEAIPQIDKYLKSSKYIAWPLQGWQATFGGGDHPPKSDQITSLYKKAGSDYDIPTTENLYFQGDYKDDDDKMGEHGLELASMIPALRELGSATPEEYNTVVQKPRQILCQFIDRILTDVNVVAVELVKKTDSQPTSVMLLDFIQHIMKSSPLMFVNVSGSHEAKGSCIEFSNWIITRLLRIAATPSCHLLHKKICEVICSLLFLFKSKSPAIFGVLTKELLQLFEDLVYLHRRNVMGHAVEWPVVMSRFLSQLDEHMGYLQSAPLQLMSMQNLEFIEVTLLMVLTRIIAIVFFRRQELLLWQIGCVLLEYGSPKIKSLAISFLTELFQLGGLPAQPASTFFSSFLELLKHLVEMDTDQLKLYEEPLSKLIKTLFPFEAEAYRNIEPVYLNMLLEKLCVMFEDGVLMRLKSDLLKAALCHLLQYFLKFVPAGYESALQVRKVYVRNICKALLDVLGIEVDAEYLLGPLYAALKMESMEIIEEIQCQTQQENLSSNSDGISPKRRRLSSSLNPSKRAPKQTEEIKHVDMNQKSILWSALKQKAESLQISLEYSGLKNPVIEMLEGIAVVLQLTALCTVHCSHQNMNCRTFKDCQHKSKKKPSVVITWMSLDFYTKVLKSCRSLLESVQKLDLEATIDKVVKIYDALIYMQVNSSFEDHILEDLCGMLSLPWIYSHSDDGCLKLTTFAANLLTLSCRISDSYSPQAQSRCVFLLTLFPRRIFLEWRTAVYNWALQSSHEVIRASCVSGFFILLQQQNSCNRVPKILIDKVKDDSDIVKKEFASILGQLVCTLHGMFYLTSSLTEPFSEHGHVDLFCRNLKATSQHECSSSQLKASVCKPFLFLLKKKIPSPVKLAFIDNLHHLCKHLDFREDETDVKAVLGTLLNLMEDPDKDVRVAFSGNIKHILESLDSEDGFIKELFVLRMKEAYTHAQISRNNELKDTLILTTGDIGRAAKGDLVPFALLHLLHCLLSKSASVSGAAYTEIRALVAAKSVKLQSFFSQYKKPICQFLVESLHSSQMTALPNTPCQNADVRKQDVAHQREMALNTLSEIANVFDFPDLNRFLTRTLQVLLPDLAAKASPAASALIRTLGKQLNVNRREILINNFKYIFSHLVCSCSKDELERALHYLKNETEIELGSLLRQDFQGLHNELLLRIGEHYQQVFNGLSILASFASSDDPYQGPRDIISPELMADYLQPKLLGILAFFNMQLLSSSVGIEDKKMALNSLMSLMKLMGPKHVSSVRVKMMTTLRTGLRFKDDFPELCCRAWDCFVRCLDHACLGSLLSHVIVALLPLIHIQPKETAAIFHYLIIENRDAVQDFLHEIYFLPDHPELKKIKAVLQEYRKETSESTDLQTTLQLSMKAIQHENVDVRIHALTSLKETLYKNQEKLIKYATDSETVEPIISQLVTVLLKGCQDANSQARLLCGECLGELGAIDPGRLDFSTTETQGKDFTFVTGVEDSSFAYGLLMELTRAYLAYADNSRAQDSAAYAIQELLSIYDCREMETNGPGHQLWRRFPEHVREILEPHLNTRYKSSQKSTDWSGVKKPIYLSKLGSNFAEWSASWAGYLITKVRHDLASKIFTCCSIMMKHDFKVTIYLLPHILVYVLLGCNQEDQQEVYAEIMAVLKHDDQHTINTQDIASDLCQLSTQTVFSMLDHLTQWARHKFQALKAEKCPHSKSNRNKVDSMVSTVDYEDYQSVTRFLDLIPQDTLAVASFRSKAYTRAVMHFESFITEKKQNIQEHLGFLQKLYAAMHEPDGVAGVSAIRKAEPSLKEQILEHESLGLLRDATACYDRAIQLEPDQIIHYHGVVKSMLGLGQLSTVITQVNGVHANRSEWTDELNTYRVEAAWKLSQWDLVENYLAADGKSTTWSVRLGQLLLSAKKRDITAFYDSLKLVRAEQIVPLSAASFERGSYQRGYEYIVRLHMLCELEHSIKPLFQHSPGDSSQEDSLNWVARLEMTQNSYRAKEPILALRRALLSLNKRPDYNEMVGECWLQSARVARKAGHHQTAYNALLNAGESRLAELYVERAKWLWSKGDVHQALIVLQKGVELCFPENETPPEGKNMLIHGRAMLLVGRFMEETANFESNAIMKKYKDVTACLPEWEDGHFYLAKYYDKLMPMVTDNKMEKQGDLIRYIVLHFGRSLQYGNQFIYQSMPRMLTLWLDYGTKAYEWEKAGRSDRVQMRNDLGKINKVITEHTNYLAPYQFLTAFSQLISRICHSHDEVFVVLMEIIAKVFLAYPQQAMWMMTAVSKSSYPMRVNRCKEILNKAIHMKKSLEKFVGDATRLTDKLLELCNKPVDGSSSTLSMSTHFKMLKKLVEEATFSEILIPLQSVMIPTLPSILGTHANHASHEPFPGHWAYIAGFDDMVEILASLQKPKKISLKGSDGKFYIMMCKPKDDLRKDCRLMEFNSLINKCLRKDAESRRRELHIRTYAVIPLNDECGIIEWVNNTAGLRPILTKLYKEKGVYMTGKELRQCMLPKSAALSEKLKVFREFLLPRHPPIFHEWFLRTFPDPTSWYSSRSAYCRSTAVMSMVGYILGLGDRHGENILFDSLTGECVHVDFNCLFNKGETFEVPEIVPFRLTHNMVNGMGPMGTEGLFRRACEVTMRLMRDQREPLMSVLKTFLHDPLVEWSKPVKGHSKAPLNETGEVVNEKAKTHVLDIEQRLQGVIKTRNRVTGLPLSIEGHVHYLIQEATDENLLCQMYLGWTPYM
Chain of full-length human ATR protein (Q8WXE1 other isoform, or with tags, fused parts or gaps partner): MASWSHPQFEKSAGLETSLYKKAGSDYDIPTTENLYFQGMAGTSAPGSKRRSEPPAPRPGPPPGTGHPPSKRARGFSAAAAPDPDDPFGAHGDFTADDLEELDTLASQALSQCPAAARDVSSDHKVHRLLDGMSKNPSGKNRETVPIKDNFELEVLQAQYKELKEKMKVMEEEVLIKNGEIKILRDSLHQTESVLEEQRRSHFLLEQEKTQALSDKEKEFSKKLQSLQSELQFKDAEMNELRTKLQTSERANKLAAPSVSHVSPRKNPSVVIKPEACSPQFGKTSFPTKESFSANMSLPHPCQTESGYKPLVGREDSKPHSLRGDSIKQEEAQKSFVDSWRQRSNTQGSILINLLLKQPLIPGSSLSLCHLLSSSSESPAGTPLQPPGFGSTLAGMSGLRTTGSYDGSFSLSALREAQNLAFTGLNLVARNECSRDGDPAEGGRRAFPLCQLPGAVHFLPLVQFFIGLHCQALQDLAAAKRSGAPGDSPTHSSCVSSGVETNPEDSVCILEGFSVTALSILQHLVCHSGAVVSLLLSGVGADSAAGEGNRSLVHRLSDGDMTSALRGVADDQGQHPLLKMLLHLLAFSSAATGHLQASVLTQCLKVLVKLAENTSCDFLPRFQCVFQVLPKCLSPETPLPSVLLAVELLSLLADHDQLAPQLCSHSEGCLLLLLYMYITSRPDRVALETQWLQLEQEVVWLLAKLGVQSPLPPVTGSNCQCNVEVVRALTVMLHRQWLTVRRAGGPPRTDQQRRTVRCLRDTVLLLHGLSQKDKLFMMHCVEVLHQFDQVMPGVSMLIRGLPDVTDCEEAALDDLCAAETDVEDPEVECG

SMILES | IC50 [nM]
COc1ccc(-c2cc(N3CCOCC3)nc3c(-c4ccn[nH]4)nccc23)cc1 [Example 309, 4-(4-methoxyphenyl)-2-(morpholin-4-yl)-8-(1H-pyrazol-5-yl)-1,7-naphthyridine] | 146
CCS(=O)(CC)=Nc1cc(N2CCOC[C@H]2C)nc2c(-c3ccn[nH]3)nccc12 [Example 126, 4-{[diethyl(oxido)-λ^6-sulfanylidene]amino}-2-[(3R)-3-methylmorpholin-4-yl]-8-(1H-pyrazol-5-yl)-1,7-naphthyridine] | 21.5
COC1(C)CN(c2cc(N3CCOCC3)nc3c(-c4ccn[nH]4)nccc23)C1 [Example 184, 4-(3-methoxy-3-methylazetidin-1-yl)-2-(morpholin-4-yl)-8-(1H-pyrazol-5-yl)-1,7-naphthyridine] | 763
Cc1nc(S(C)(=O)=O)ccc1-c1cc(N2CCOC[C@H]2C)nc2c(-c3ccn[nH]3)nccc12 [Example 73, 4-[2-methyl-6-(methylsulfonyl)pyridin-3-yl]-2-[(3R)-3-methylmorpholin-4-yl]-8-(1H-pyrazol-5-yl)-1,7-naphthyridine] | 6.71
Cn1nccc1-c1cc(N2CCOCC2)nc2c(-c3ccn[nH]3)nccc12 [Example 348, 4-(1-methyl-1H-pyrazol-5-yl)-2-(morpholin-4-yl)-8-(1H-pyrazol-5-yl)-1,7-naphthyridine] | 55.3
C[C@@H]1COCCN1c1cc(-c2cccc(S(C)(=N)=O)c2)c2ccnc(-c3ccn[nH]3)c2n1 (stereo partly drawn) [Example 31, 3-[2-((R)-3-methylmorpholin-4-yl)-8-(2H-pyrazol-3-yl)-[1,7]naphthyridine-4-yl]phenyl-S-methylsulphoximide] | 86.6
Cc1ccc(-c2cc(N3CCOCC3)nc3c(-c4ccn[nH]4)nccc23)s1 [Example 381, 4-(5-methylthiophen-2-yl)-2-(morpholin-4-yl)-8-(1H-pyrazol-5-yl)-1,7-naphthyridine] | 121
C[C@@H]1COCCN1c1cc(-c2cnn(C(F)F)c2)c2ccnc(-c3ccn[nH]3)c2n1 [Example 256, 4-[1-(difluoromethyl)-1H-pyrazol-4-yl]-2-[(3R)-3-methylmorpholin-4-yl]-8-(1H-pyrazol-5-yl)-1,7-naphthyridine] | 56.2
c1ccc2sc(-c3cc(N4CCOCC4)nc4c(-c5ccn[nH]5)nccc34)cc2c1 [Example 347, 4-(1-benzothiophen-2-yl)-2-(morpholin-4-yl)-8-(1H-pyrazol-5-yl)-1,7-naphthyridine] | 241
Oc1cccc(-c2cc(N3CCOCC3)nc3c(-c4ccn[nH]4)nccc23)c1 [Example 337, 3-[2-(morpholin-4-yl)-8-(1H-pyrazol-5-yl)-1,7-naphthyridin-4-yl]phenol] | 28.4
Cc1nc(F)ccc1-c1cc(N2CCOC[C@H]2C)nc2c(-c3ccn[nH]3)nccc12 [Example 97, 4-(6-fluoro-2-methylpyridin-3-yl)-2-[(3R)-3-methylmorpholin-4-yl]-8-(1H-pyrazol-5-yl)-1,7-naphthyridine] | 13.9
C[C@@H]1COCCN1c1cc(N2CCOCC2)c2ccnc(-c3ccn[nH]3)c2n1 [Example 145, 2-[(3R)-3-methylmorpholin-4-yl]-4-(morpholin-4-yl)-8-(1H-pyrazol-5-yl)-1,7-naphthyridine] | 18.2
CN(c1cccc(F)c1)c1cc(N2CCOCC2)nc2c(-c3ccn[nH]3)nccc12 [Example 424, N-(3-fluorophenyl)-N-methyl-2-(morpholin-4-yl)-8-(1H-pyrazol-5-yl)-1,7-naphthyridin-4-amine] | 241
CS(=O)(=O)c1ccc(-c2cc(N3CCOCC3)nc3c(-c4ccn[nH]4)nccc23)c(F)c1 [Example 24, 4-[2-fluoro-4-(methylsulfonyl)phenyl]-2-(morpholin-4-yl)-8-(1H-pyrazol-5-yl)-1,7-naphthyridine] | 38.2
O=C(c1ccc(-c2cc(N3CCOCC3)nc3c(-c4ccn[nH]4)nccc23)cc1)N1CCCCC1 [Example 289, {4-[2-(morpholin-4-yl)-8-(1H-pyrazol-5-yl)-1,7-naphthyridin-4-yl]phenyl}(piperidin-1-yl)methanone] | 2990
CS(=N)(=O)c1cccc(-c2cc(N3CCOCC3)nc3c(-c4ccn[nH]4)nccc23)c1 (stereo not shown) [Example 19] | 293
CC(C)Sc1cc(N2CCOCC2)nc2c(-c3ccn[nH]3)nccc12 [Example 210, 2-(morpholin-4-yl)-4-(propan-2-ylsulfanyl)-8-(1H-pyrazol-5-yl)-1,7-naphthyridine] | 231
Cc1cc(COc2cc(N3CCOCC3)nc3c(-c4ccn[nH]4)nccc23)no1 [Example 49, 4-[(5-methyl-1,2-oxazol-3-yl)methoxy]-2-(morpholin-4-yl)-8-(1H-pyrazol-5-yl)-1,7-naphthyridine] | 200
CC(C)(C)n1cc(-c2cc(N3CCOCC3)nc3c(-c4ccn[nH]4)nccc23)cn1 [Example 407, 4-(1-tert-butyl-1H-pyrazol-4-yl)-2-(morpholin-4-yl)-8-(1H-pyrazol-5-yl)-1,7-naphthyridine] | 309

SMILES | IC50 [nM]
c1ccc2c(-c3cc(N4CCOCC4)nc4c(-c5ccn[nH]5)nccc34)cncc2c1 [Example 363, 4-(isoquinolin-4-yl)-2-(morpholin-4-yl)-8-(1H-pyrazol-5-yl)-1,7-naphthyridine] | 191
Cc1ccncc1-c1cc(N2CCOCC2)nc2c(-c3ccn[nH]3)nccc12 [Example 292, 4-(4-methylpyridin-3-yl)-2-(morpholin-4-yl)-8-(1H-pyrazol-5-yl)-1,7-naphthyridine] | 108
COc1ccc(F)cc1-c1cc(N2CCOCC2)nc2c(-c3ccn[nH]3)nccc12 [Example 339, 4-(5-fluoro-2-methoxyphenyl)-2-(morpholin-4-yl)-8-(1H-pyrazol-5-yl)-1,7-naphthyridine] | 89.6
Fc1cncc(-c2cc(N3CCOCC3)nc3c(-c4ccn[nH]4)nccc23)c1 [Example 394, 4-(5-fluoropyridin-3-yl)-2-(morpholin-4-yl)-8-(1H-pyrazol-5-yl)-1,7-naphthyridine] | 119
C[C@@H]1COCCN1c1cc(C2(O)CCCCC2)c2ccnc(-c3ccn[nH]3)c2n1 [Example 189, 1-{2-[(3R)-3-methylmorpholin-4-yl]-8-(1H-pyrazol-5-yl)-1,7-naphthyridin-4-yl}cyclohexanol] | 21.4
Cc1nc(S(C)(=N)=O)ccc1-c1cc(N2CCOC[C@H]2C)nc2c(-c3ccn[nH]3)nccc12 (stereo partly drawn) [Example 116, 4-[2-methyl-6-(S-methylsulfonimidoyl)pyridin-3-yl]-2-[(3R)-3-methylmorpholin-4-yl]-8-(1H-pyrazol-5-yl)-1,7-naphthyridine] | 9.51
N#Cc1cc(N2CCOCC2)nc2c(-c3cc[nH]n3)nccc12 [Example 34, 2-(morpholin-4-yl)-8-(1H-pyrazol-3-yl)-[1,7]naphthyridine-4-carbonitrile] | 357
CC(C)Oc1cc(N2[C@H](C)COC[C@@H]2C)nc2c(-c3ccn[nH]3)nccc12 [Example 58, 2-[(3R,5S)-3,5-dimethylmorpholin-4-yl]-4-isopropoxy-8-(1H-pyrazol-5-yl)-1,7-naphthyridine] | 413
C1=C(c2cc(N3CCOCC3)nc3c(-c4ccn[nH]4)nccc23)CCNC1 [Example 17, 2-(morpholin-4-yl)-8-(1H-pyrazol-5-yl)-4-(1,2,3,6-tetrahydropyridin-4-yl)-1,7-naphthyridine] | 185
C[C@@H]1COCCN1c1cc(C2CCSCC2)c2ccnc(-c3ccn[nH]3)c2n1 [Example 241, 2-[(3R)-3-methylmorpholin-4-yl]-8-(1H-pyrazol-5-yl)-4-(tetrahydro-2H-thiopyran-4-yl)-1,7-naphthyridine] | 4.06
C[C@@H]1COCCN1c1cc(N=S(C)(=O)c2ccccc2F)c2ccnc(-c3ccn[nH]3)c2n1 (single isomer, unassigned) [Example 140] | 76.5
Cn1cc(-c2cc(N3CCOCC3)nc3c(-c4ccn[nH]4)nccc23)cn1 [Example 367, 4-(1-methyl-1H-pyrazol-4-yl)-2-(morpholin-4-yl)-8-(1H-pyrazol-5-yl)-1,7-naphthyridine] | 215
CCNC(=O)N=S(C)(=O)c1ccc(-c2cc(N3CCOCC3)nc3c(-c4ccn[nH]4)nccc23)cc1 (stereo not shown) [Example 192, 1-ethyl-3-(methyl{4-[2-(morpholin-4-yl)-8-(1H-pyrazol-5-yl)-1,7-naphthyridin-4-yl]phenyl}oxido-λ^6-sulfanylidene)urea] | 115
Cc1cn[nH]c1-c1cc(N2CCOC[C@H]2C)nc2c(-c3ccn[nH]3)nccc12 [Example 149, 2-[(3R)-3-methylmorpholin-4-yl]-4-(4-methyl-1H-pyrazol-5-yl)-8-(1H-pyrazol-5-yl)-1,7-naphthyridine] | 48.4
c1ccc2c(c1)CCN(c1cc(N3CCOCC3)nc3c(-c4ccn[nH]4)nccc13)C2 [Example 419, 4-(3,4-dihydroisoquinolin-2(1H)-yl)-2-(morpholin-4-yl)-8-(1H-pyrazol-5-yl)-1,7-naphthyridine] | 118
Cc1noc(C)c1-c1cc(N2CCOC[C@H]2C)nc2c(-c3ccn[nH]3)nccc12 [Example 105, 4-(3,5-dimethyl-1,2-oxazol-4-yl)-2-[(3R)-3-methylmorpholin-4-yl]-8-(1H-pyrazol-5-yl)-1,7-naphthyridine] | 8.67
Cc1cc(S(C)(=O)=O)ncc1-c1cc(N2CCOCC2)nc2c(-c3ccn[nH]3)nccc12 [Example 6, 4-[4-methyl-6-(methylsulfonyl)pyridin-3-yl]-2-(morpholin-4-yl)-8-(1H-pyrazol-5-yl)-1,7-naphthyridine] | 68.6
C[C@@H]1COCCN1c1cc(OCCCCN)c2ccnc(-c3ccn[nH]3)c2n1 [Example 57, 4-({2-[(3R)-3-methylmorpholin-4-yl]-8-(1H-pyrazol-5-yl)-1,7-naphthyridin-4-yl}oxy)butan-1-amine] | 230

Same assay, conditions: tracer B, TR-FRET; read-out: ATR binding (tracer B) IC50

SMILES | IC50 [nM]
C[C@@H]1COCCN1c1cc(-c2cccc(S(C)(=N)=O)c2)c2ccnc(-c3ccn[nH]3)c2n1 (stereo partly drawn) [Example 31, 3-[2-((R)-3-methylmorpholin-4-yl)-8-(2H-pyrazol-3-yl)-[1,7]naphthyridine-4-yl]phenyl-S-methylsulphoximide] | 45.1
CS(=O)(=O)c1ccc(-c2cc(N3CCOCC3)nc3c(-c4ccn[nH]4)nccc23)c(F)c1 [Example 24, 4-[2-fluoro-4-(methylsulfonyl)phenyl]-2-(morpholin-4-yl)-8-(1H-pyrazol-5-yl)-1,7-naphthyridine] | 20.7
CS(=N)(=O)c1cccc(-c2cc(N3CCOCC3)nc3c(-c4ccn[nH]4)nccc23)c1 (stereo not shown) [Example 19] | 181
N#Cc1cc(N2CCOCC2)nc2c(-c3cc[nH]n3)nccc12 [Example 34, 2-(morpholin-4-yl)-8-(1H-pyrazol-3-yl)-[1,7]naphthyridine-4-carbonitrile] | 536
CC(C)Oc1cc(N2[C@H](C)COC[C@@H]2C)nc2c(-c3ccn[nH]3)nccc12 [Example 58, 2-[(3R,5S)-3,5-dimethylmorpholin-4-yl]-4-isopropoxy-8-(1H-pyrazol-5-yl)-1,7-naphthyridine] | 615
C1=C(c2cc(N3CCOCC3)nc3c(-c4ccn[nH]4)nccc23)CCNC1 [Example 17, 2-(morpholin-4-yl)-8-(1H-pyrazol-5-yl)-4-(1,2,3,6-tetrahydropyridin-4-yl)-1,7-naphthyridine] | 117
